According to patent US9359372B2, “Hexahydrodibenzo[a,g]quinolizine compound, preparation method thereof, pharmaceutical composition and use thereof” (SHANGHAI INSTITUTE OF MATERIA MEDICA, CHINESE ACADEMY OF …, priority 2011, dated 2016):
Where “and” joins values, the source holds several entries; their conditions need not be identical. Equal values may be shown once. Blank lines part the entries; values can stand above or below the compound they belong to.

Tests used:
[1] = biological target: D2 dopamine receptor (Rattus norvegicus (Rat), UniProt P61169); experiment: Affinity on dopamine D2 receptor, competition with [3H] Spiperone; assay type: binding; set-up: D2 receptor inhibition ratio (%): concentration or dose not given beside the values
Chain of D2 dopamine receptor (P61169 whole entry): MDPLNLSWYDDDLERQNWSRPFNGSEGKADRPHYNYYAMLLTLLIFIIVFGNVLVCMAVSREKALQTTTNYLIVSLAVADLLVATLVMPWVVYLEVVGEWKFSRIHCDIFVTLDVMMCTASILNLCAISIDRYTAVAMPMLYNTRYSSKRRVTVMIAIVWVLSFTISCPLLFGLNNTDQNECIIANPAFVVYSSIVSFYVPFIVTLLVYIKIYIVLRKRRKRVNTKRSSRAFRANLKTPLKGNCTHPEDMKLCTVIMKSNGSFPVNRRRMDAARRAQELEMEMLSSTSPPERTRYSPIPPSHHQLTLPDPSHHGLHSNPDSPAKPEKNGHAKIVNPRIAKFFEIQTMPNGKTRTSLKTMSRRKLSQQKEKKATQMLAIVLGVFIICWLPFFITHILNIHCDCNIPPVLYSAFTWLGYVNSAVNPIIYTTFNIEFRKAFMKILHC
Description: (§1) (1). Determination of the Affinity of Hexahydrodibenzo[a,g]Quinolizine Compound of General Formula I and Derivatives Thereof on Dopamine D1, Dopamine D2, 5-HT1A, and 5-HT2A Receptor.
(§2) 1) The Experimental Method
(§3) Different concentrations (10^−5 M-10^−11 M) of the compound of the invention and corresponding isotope receptor ligand as well as receptor protein were loaded into the reaction tube and incubated in 30° C. water bath for 60 minutes. The reaction was terminated in a refrigerator. The reaction mixture was put in a Millipore filter (millipore) cell sample collector, filtered through suction filtration using GF/C glass fiber filter paper, and dried. The resulting sample was placed into 0.5 mL tube. 500 μL liquid scintillation fluid was added and intensity of radioactivity was determined by counting.
(§4) (1) Construction of receptor and materials for cell culture: Escherichia coli. DH5α strain; insect virus transfer vector pVL1393 plasmid; BaculoGold linear Chinese baculovirus DNA, purchased from ParMingen company; mkD1RcDNA; rD2R cDNA; various restriction endonucleases, TaqDNA polymerase, T4 ligase, etc., LB medium; insect cell culture TNM-FH.
(§5) (2) the Experimental Materials for Receptor Binding
(§6) Firstly, the above […] are dissolved in DMSO and then diluted with double distilled water to the appropriate concentration (10^−5 M-10^−11 M).
(§7) (+) Butaclamo purchased from RBI company, GF/C glass fiber filter paper purchased from Whatman Co., scintillation fluid (dopamine D1, D2 receptors)/liposoluble scintillation fluid (5-HT1A, 5-HT2A receptor), Beckman LS-6500 multi-function liquid scintillation counter.

[2] = biological target: dopamine D1 receptor (Macaca mulatta (Rhesus macaque), UniProt O77680); experiment: Affinity on dopamine D1 receptor, competition with [3H] SCH23390; assay type: binding; set-up: D1 receptor inhibition ratio (%): concentration or dose not given beside the values
Chain of dopamine D1 receptor (O77680 whole entry): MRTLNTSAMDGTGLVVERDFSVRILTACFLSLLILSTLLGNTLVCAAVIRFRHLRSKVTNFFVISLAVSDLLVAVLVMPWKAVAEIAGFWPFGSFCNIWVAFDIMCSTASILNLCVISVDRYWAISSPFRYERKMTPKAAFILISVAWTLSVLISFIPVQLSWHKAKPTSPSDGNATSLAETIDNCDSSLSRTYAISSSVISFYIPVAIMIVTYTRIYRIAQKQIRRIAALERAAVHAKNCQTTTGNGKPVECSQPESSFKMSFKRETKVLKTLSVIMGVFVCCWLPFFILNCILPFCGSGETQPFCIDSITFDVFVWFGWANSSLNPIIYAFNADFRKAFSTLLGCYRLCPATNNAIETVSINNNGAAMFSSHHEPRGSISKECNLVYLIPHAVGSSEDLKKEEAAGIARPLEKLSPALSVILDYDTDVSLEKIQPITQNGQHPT
Description: as §1, §2, §3, §4, §5, §6, §7

[3] = In vivo pharmacokinetic experiment of rats (gavage and intravenous); set-up: species or system SD rats; conditions: rat
Description: Pharmacokinetic properties of Compound DC037029 in rats were preliminarily studied in this experiment. After the tested compound was delivered to rats by intravenous administration and intragastric administration, respectively, the whole blood samples were collected at different time point and the plasma was separated. The concentration of compound in plasma was determined by liquid chromatography-tandem mass spectrometry.
Six healthy male SD rats with the weight of 200-220 g were randomly divided into 2 groups, each of which has three rats. The rats in each group were administrated with the tested compound by gavage or intravenous injection, respectively.
The compound was dissolved in 10% DMSO/10% Tween/[…].
The rats are fasted for 12 h and can drink water ad libitum before test. 2 h after dosing, the rats ate all together. The time point for collecting blood samples and the sample processing are listed as follows.
Intragastric administration time: 0.25, 0.5, 1.0, 2.0, 3.0, 5.0, 7.0, 9.0 and 24 h after administration.
Intravenous administration time: 5 min, 0.25, 0.5, 1.0, 2.0, 3.0, 5.0, 7.0, 9.0 and 24 h after administration. At above time point, 0.3 ml venous blood was taken from retrobulbar venous plexus of the rat and loaded into heparinization tube. After centrifuged at 1000 rpm for 5 min, the plasma was separated and frozen at −20° C. in a refrigerator.

[4] = gavage 20 mg/kg, individual animals
[5] = intravenous injection 10 mg/kg, average
[6] = intravenous injection 10 mg/kg, individual animals

SMILES: COc1ccc2c(c1)CCN1Cc3cc(OC)c(OC)cc3C[C@@H]21 [DC037010, S-(+3,10,11-trimethoxy-5,8,13,13a-tetrahydro-6H-dibenzo[a,g]quinolizine]
D2 receptor inhibition ratio (%) [1]: 51.5% | D1 receptor inhibition ratio (%) [2]: 66.8%

SMILES: c1c2c(cc3c1OCO3)CN1CCc3cc4c(cc3[C@@H]1C2)OCO4 [DC037012, S-(−)-2,3,10,11-bimethylenedioxy-5,8,13,13a-tetrahydro-6H-dibenzo[a,g]quinolizine]
D2 receptor inhibition ratio (%) [1]: 89.3% | IC50 [1]: 1240 nM | Ki [1]: 240 nM | D1 receptor inhibition ratio (%) [2]: 95.8% | IC50 [2]: 300 nM | Ki [2]: 148 nM

SMILES: COc1cc2c(cc1OC)[C@@H]1Cc3cc(OC)c(OC)c(OC)c3[C@H](C)N1CC2 [DC037019, (8S,14S)-2,3,9,10,11-pentamethoxyl-8-methyl-5,8,13,13a-tetra-hydro-6H-dibenzo[a,g]quinolizine]
D2 receptor inhibition ratio (%) [1]: 65.3% | D1 receptor inhibition ratio (%) [2]: 10.3%

SMILES: COc1cc2c(cc1OC)CN1CCc3cc4c(cc3[C@@H]1C2)OCO4 [DC037015, S-(−)-2,3-methylenedioxy-10,11-bimethoxy-5,8,13,13a-tetrahydro-6H-dibenzo[a,g]quinolizine]
D2 receptor inhibition ratio (%) [1]: 59.3% | D1 receptor inhibition ratio (%) [2]: 59.2%

SMILES: COc1ccc2c(c1)CCN1Cc3c(cc(OC)c(OC)c3OC)CC21 (racemic) [DC037007, (±)-3,9,10,11-tetramethoxy-5,8,13,13a-tetrahydro-6H-dibenzo[a,g]quinolizine]
D2 receptor inhibition ratio (%) [1]: 49.05% | D1 receptor inhibition ratio (%) [2]: 87.65% | IC50 [2]: 2030 nM | Ki [2]: 1000 nM

SMILES: COc1cc2c(cc1O)[C@@H]1Cc3cc4c(cc3CN1CC2)OCO4 [DC037029, S-(−)-2-hydroxy-3-methoxy-10,12-methylenedioxy-5,8,13,13a-tetrahydro-6H-dibenzo[a,g]quinolizine]
F (absolute bioavailability) ([3]; gavage 20 mg/kg): 34.2% | Plasma concentration ([3]; gavage 20 mg/kg, 0.25 h, average): 392 ng/mL | Plasma concentration ([3]; gavage 20 mg/kg, 0.25 h, individual animals): 268 ng/mL and 416 ng/mL and 493 ng/mL | Plasma concentration ([3]; gavage 20 mg/kg, 0.5 h, average): 445 ng/mL | Plasma concentration ([3]; gavage 20 mg/kg, 0.5 h, individual animals): 289 ng/mL and 494 ng/mL and 553 ng/mL | Plasma concentration ([3]; gavage 20 mg/kg, 1.0 h, average): 420 ng/mL | Plasma concentration ([3]; gavage 20 mg/kg, 1.0 h, individual animals): 230 ng/mL and 455 ng/mL and 575 ng/mL | Plasma concentration ([3]; gavage 20 mg/kg, 2.0 h, average): 345 ng/mL | Plasma concentration ([3]; gavage 20 mg/kg, 2.0 h, individual animals): 218 ng/mL and 326 ng/mL and 492 ng/mL | Plasma concentration ([3]; gavage 20 mg/kg, 3.0 h, average): 289 ng/mL | Plasma concentration ([3]; gavage 20 mg/kg, 3.0 h, individual animals): 231 ng/mL and 207 ng/mL and 431 ng/mL | Plasma concentration ([3]; gavage 20 mg/kg, 5.0 h, average): 266 ng/mL | Plasma concentration ([3]; gavage 20 mg/kg, 5.0 h, individual animals): 233 ng/mL and 236 ng/mL and 330 ng/mL | Plasma concentration ([3]; gavage 20 mg/kg, 7.0 h, average): 122 ng/mL | Plasma concentration ([3]; gavage 20 mg/kg, 7.0 h, individual animals): 169 ng/mL and 80.3 ng/mL and 118 ng/mL | Plasma concentration ([3]; gavage 20 mg/kg, 9.0 h, average): 82.2 ng/mL | Plasma concentration ([3]; gavage 20 mg/kg, 9.0 h, individual animals): 91.9 ng/mL and 41.3 ng/mL and 113 ng/mL | Plasma concentration ([3]; gavage 20 mg/kg, 24.0 h, average): 4.28 ng/mL | Plasma concentration ([3]; gavage 20 mg/kg, 24.0 h, individual animals): 9.67 ng/mL and 1.26 ng/mL and 1.90 ng/mL | AUC0-t ([3]; gavage 20 mg/kg, average): 2867 ± 798 ng·h/mL and 2867 ng·h/mL | AUC0-∞ ([3]; gavage 20 mg/kg, average): 2891 ng·h/mL | Cmax ([3]; gavage 20 mg/kg, average): 453 ± 147 ng/mL and 453 ng/mL | MRT ([3]; gavage 20 mg/kg, average): 5.04 h | Tmax ([3]; gavage 20 mg/kg, average): 0.67 ± 0.29 h and 0.67 h | t1/2 ([3]; gavage 20 mg/kg, average): 3.26 ± 0.82 h and 3.26 h | AUC0-t [3, 4]: 3771 ng·h/mL and 2570 ng·h/mL and 2260 ng·h/mL | AUC0-∞ [3, 4]: 3779 ng·h/mL and 2629 ng·h/mL and 2265 ng·h/mL | Cmax [3, 4]: 575 ng/mL and 289 ng/mL and 494 ng/mL | MRT [3, 4]: 4.67 h and 6.45 h and 4.00 h | Tmax [3, 4]: 1.00 h and 0.50 h (2×) | t1/2 [3, 4]: 2.70 h and 4.20 h and 2.89 h | Plasma concentration ([3]; intravenous injection 10 mg/kg, 0.083 h, average): 4194 ng/mL | Plasma concentration ([3]; intravenous injection 10 mg/kg, 0.083 h, individual animals): 4576 ng/mL and 4169 ng/mL and 3837 ng/mL | Plasma concentration ([3]; intravenous injection 10 mg/kg, 0.25 h, average): 2883 ng/mL | Plasma concentration ([3]; intravenous injection 10 mg/kg, 0.25 h, individual animals): 3010 ng/mL and 2766 ng/mL and 2874 ng/mL | Plasma concentration ([3]; intravenous injection 10 mg/kg, 0.5 h, average): 1942 ng/mL | Plasma concentration ([3]; intravenous injection 10 mg/kg, 0.5 h, individual animals): 2055 ng/mL and 1788 ng/mL and 1984 ng/mL | Plasma concentration ([3]; intravenous injection 10 mg/kg, 1.0 h, average): 1207 ng/mL | Plasma concentration ([3]; intravenous injection 10 mg/kg, 1.0 h, individual animals): 1211 ng/mL and 1047 ng/mL and 1365 ng/mL | Plasma concentration ([3]; intravenous injection 10 mg/kg, 2.0 h, average): 571 ng/mL | Plasma concentration ([3]; intravenous injection 10 mg/kg, 2.0 h, individual animals): 590 ng/mL and 527 ng/mL and 596 ng/mL | Plasma concentration ([3]; intravenous injection 10 mg/kg, 3.0 h, average): 255 ng/mL | Plasma concentration ([3]; intravenous injection 10 mg/kg, 3.0 h, individual animals): 228 ng/mL and 294 ng/mL and 243 ng/mL | Plasma concentration ([3]; intravenous injection 10 mg/kg, 5.0 h, average): 75.3 ng/mL | Plasma concentration ([3]; intravenous injection 10 mg/kg, 5.0 h, individual animals): 65.0 ng/mL and 83.7 ng/mL and 77.2 ng/mL | Plasma concentration ([3]; intravenous injection 10 mg/kg, 7.0 h, average): 20.7 ng/mL | Plasma concentration ([3]; intravenous injection 10 mg/kg, 7.0 h, individual animals): 19.2 ng/mL and 21.1 ng/mL and 21.7 ng/mL | Plasma concentration ([3]; intravenous injection 10 mg/kg, 9.0 h, average): 8.00 ng/mL | Plasma concentration ([3]; intravenous injection 10 mg/kg, 9.0 h, individual animals): 7.31 ng/mL and 9.26 ng/mL and 7.41 ng/mL | Plasma concentration ([3]; intravenous injection 10 mg/kg, 24.0 h, average): 1.76 ng/mL | Plasma concentration ([3]; intravenous injection 10 mg/kg, 24.0 h, individual animals): 2.26 ng/mL and 1.61 ng/mL and 1.41 ng/mL | AUC0-t [3, 5]: 4196 ± 141 ng·h/mL and 4196 ng·h/mL | AUC0-∞ [3, 5]: 4210 ng·h/mL | CLz (plasma clearance rate CL) [3, 5]: 2.38 ± 0.08 L/h/kg and 2.38 L/h/kg | MRT [3, 5]: 1.47 h | Vss (steady state distribution volume) [3, 5]: 3.49 ± 0.24 L/kg and 3.49 L/kg | t1/2 [3, 5]: 5.44 ± 0.85 h and 5.44 h | AUC0-t [3, 6]: 4262 ng·h/mL and 4292 ng·h/mL and 4034 ng·h/mL | AUC0-∞ [3, 6]: 4272 ng·h/mL and 4313 ng·h/mL and 4046 ng·h/mL | CLz [3, 6]: 2.34 L/h/kg and 2.32 L/h/kg and 2.47 L/h/kg | MRT [3, 6]: 1.42 h and 1.46 h and 1.53 h | Vss [3, 6]: 3.33 L/kg and 3.38 L/kg and 3.78 L/kg | t1/2 [3, 6]: 4.88 h and 6.42 h and 5.01 h | IC50 [2]: 8.19 nM | Ki [2]: 4.2 nM | affinity on dopamine D1 receptor (in words) ([2]; summary of the tables): strong affinity

SMILES: COc1ccc(OC)c2c1C[C@H]1c3cc4c(cc3CCN1C2)OCO4 [DC037013, S-(−)-2,3-methylenedioxy-9,12-bimethoxy-5,8,13,13a-tetrahydro-6H-dibenzo[a,g]quinolizine]
IC50 [2]: 47.9 nM | Ki [2]: 23.6 nM

Other lines, results leading:

D2 receptor inhibition ratio (%) [1]: 10.6% | D1 receptor inhibition ratio (%) [2]: 89.0% | IC50 [2]: 1010 nM | Ki [2]: 498 nM
SMILES: COc1cc2c(cc1OC)C1Cc3cc(O)c(O)cc3CN1CC2 (racemic) [DC037022, (±)-2,3-bimethoxy-10,11-bihydroxy-5,8,13,13a-tetrahydro-6H-dibenzo[a,g]quinolizine]

D2 receptor inhibition ratio (%) [1]: 41.7% | D1 receptor inhibition ratio (%) [2]: 59.3%
SMILES: COc1cc2c(cc1OC)[C@@H]1Cc3cc4c(cc3CN1CC2)OCO4 [DC037011, S-(−)-2,3-bimethoxy-10,11-methylenedioxy-5,8,13,13a-tetrahydro-6H-dibenzo[a,g]quinolizine]

D2 receptor inhibition ratio (%) [1]: 14.7% | D1 receptor inhibition ratio (%) [2]: 58.95%
SMILES: COc1cc2c(cc1OC)CN1CCc3cc(OC)c(OC)cc3C1C2 (racemic) [DC037001, (±)-2,3,10,11-tetramethoxy-5,8,13,13a-tetrahydro-6H-dibenzo[a,g]quinolizine]
